One block for each compound: values may come before it.
Assays:
[1] = test system: children with mitochondrial disease; details: 2 g/m^2 three times daily for up to two years; cited from earlier work
[2] = test system: patients undergoing chemotherapy with 5-fluorouracil; details: 6 g four times a day; cited from earlier work
[3] = test system: patients with Bipolar I Disorder, Most Recent Episode Depressed; test: Same six-week study: Hamilton Anxiety Scale (HAM-A); assay type: in vivo, human
Description: (§1) The YMRS is an 11 item scale designed to measure core manic symptoms (Young et al., Br. J. Psychiatry, 133:429-435). A cumulative score of 15 or greater on the YMRS was considered evidence of a treatment emergent affective switch. The HAM-A scale is a measure of global anxiety, including cognitive and somatic symptoms.
A six-week, double blind, placebo-controlled, dose-escalation study was performed to assess the safety and efficacy of uridine in bipolar I depression. Eight-four (84) patients of both sexes were enrolled at twelve sites, randomized on a 1:1 basis to receive either placebo or uridine. To decrease the probability of a false negative result, uridine or placebo were given as monotherapy, and no concurrent bipolar medications, including mood stabilizers, atypical antipsychotics, antidepressants, anticonvulsants or other psychotropic medications were allowed during the study. Patients taking such medications were tapered gradually during the 28 days prior to initiation of the trial. Patients were evaluated each week over the 6-week trial period, with an extensive intervention plan for any patient having exacerbation of bipolar or depressive symptoms. […]
The effect on anxiety in uridine-treated bipolar I depression subjects in comparison to placebo was evaluated using the mean HAM-A scores for each group.

[4] = in vivo; cited from earlier work
[5] = test system: patients undergoing cancer chemotherapy; details: cited from earlier work
[6] = test system: patients with Bipolar I Disorder, Most Recent Episode Depressed; test: Six-week double blind placebo-controlled dose-escalation study of uridine in bipolar I depression: MADRS; assay type: in vivo, human; details: for True difference in mean MADRS between groups (uridine vs placebo): week 6; for Mean change of MADRS from baseline (treatment response), percent: total group; for Average improvement on MADRS over placebo: weeks 2-6
[7] = test system: patients (e.g. hereditary orotic aciduria); details: cited from earlier work
[8] = test system: patients with Bipolar I Disorder, Most Recent Episode Depressed; assay type: in vivo, human
Description: as §1
(§2) A six-week, double blind, placebo-controlled, dose-escalation study was performed to assess the safety and efficacy of uridine in bipolar I depression. Eight-four (84) patients of both sexes were enrolled at twelve sites, randomized on a 1:1 basis to receive either placebo or uridine. To decrease the probability of a false negative result, uridine or placebo were given as monotherapy, and no concurrent bipolar medications, including mood stabilizers, atypical antipsychotics, antidepressants, anticonvulsants or other psychotropic medications were allowed during the study. Patients taking such medications were tapered gradually during the 28 days prior to initiation of the trial. Patients were evaluated each week over the 6-week trial period, with an extensive intervention plan for any patient having exacerbation of bipolar or depressive symptoms. After the trial period, patients were eligible to initiate therapy for bipolar disease and a follow-up visit occurred at week ten.
Informed consent was provided by all patients. […]

[9] = test system: patients with Bipolar I Disorder, Most Recent Episode Depressed; test: Same six-week study: Clinical Global Impression for bipolar disorder (CGI-BP-S / CGI-BP-C); assay type: in vivo, human; details: for Average CGI-C-BP (Depression) / Average CGI-C-BP (Overall): 7-point scale, 4 = no change, lower = improved
From the text: The CGI-BP scale is a modification of the clinical global impression for use in bipolar disorder as a global assessment of patient severity and change of status (Spearing et al., 1997, Psychiatry Res., 73:159-171). The CGI-BP-S rates the severity of the illness on a 7 point scale. The CGI-BP-C rates the change in the severity of disease compared to baseline. This also uses a 7 point scale, anchored by a score of 4 which correlates to no change since the initiation of treatment. Lower scores correspond to improvement, higher to worsening.
as §2
Informed consent was provided by all patients.
Subjects in the uridine treatment group were given either 2 g per day (low dose) or 4 g per day (high dose) of uridine. Subjects in the placebo group were given tablets of identical size and appearance with identical dosing instructions.
A dose of 1 g orally twice daily (2 g/day) was chosen to initiate treatment, with an increase to 2 g orally twice daily (4 g/day) in the absence of clinical improvement. On Day 1, all patients received a single dose of either placebo or uridine (2 g). This loading dose was done in order to compare pharmacokinetics of uridine at study start and end. Beginning on Day 2, patients received either placebo and uridine at a dose of 2 g/day administered as 1 g orally twice daily (2 tablets twice daily) for one week. At the Day 8 visit, the dose was increased to 4 g/day administered as 2 g orally twice daily (4 tablets twice daily) if there had been no serious untoward drug-related adverse events, and if the subject had less than a 25% improvement on the MADRS from baseline (Day 1). Patients that remained on 2 g/day were increased to 4 g/day at a subsequent visit if the improvement from baseline on the MADRS was less than 25%. Likewise, subjects having adverse events at the high dose were decreased to the low dose at the discretion of the investigator. On Day 43, all patients received a single dose of either placebo or uridine administered as 2 g orally twice daily (4 tablets twice daily), regardless of dose regimen. This was the patients' last dose of study drug.
The CGI-BP is a clinical impression scale that has been adapted for bipolar disorder and is comprised of an overall score, a depression score and a mania score. The CGI in this study used the severity of disease (CGI-BP-S) at study day 1 as the anchor point and the change from baseline (CGI-BP-C) in subsequent evaluations. Each assessment was intended to measure the change from the study start. The severity of disease (baseline) was similar between groups (Uridine=4.48; Placebo=4.68, n.s.), which are similar in magnitude to published efficacy trials in bipolar I depression (Brown et al., 2006, J. Clin. Psychiatry, 67:1025-33; Calabrese et al., 1999, J. Clin. Psychiatry, 60:79-88; Thase et al., 2006, J. Clin. Psychiatry, 26:600-609; Tohen et al., 2003, Arch. Gen. Psychiatry, 60:1079-88; Goldberg et al., 2007, Am. J. Psychiatry, 164:1348-55; Nierenberg et al., 2006, Am. J. Psychiatry, 163:210-216). […]

[10] = Wk 10, follow-up a month after treatment concluded

SMILES: CC(=O)OC[C@H]1O[C@@H](n2ccc(=O)[nH]c2=O)[C@H](OC(C)=O)[C@@H]1OC(C)=O [TAU, Triacetyluridine]
- Adverse events [1]: no adverse events were reported
- Adverse effects [2]: no adverse effects

- Exacerbation of mean YMRS on treatment ([8]; in vivo): did not exacerbate the mean YMRS
SMILES: O=c1ccn([C@@H]2O[C@H](CO)[C@@H](O)[C@H]2O)c(=O)[nH]1 [uridine]
- Mean HAM-A score vs placebo, MERM over the treatment period [3]: no difference between groups
- Volume distribution [4]: around 0.634 liters/kg
- Main side effects seen with IV uridine [5]: infusion site phlebitis and transient shivering and fever
- Sustained elevations in plasma uridine ([5]; intravenous, cancer chemotherapy context): exceeding 2,000 μM
- MADRS change from baseline, as percentage of the baseline score, Δ (%) ([6]; Baseline (Study Day 1)): 0%
- Average MADRS score ([6]; Baseline (Study Day 1), all patients): 30.28
- Difference in change from baseline of average MADRS vs placebo (Δ) ([6]; Day 43, subjects with <2 episodes of mania or hypomania): −8.2
- Difference in change from baseline of average MADRS vs placebo (Δ) ([6]; Day 43, subjects with <10 episodes of depression): −1.7
- Difference in change from baseline of average MADRS vs placebo (Δ) ([6]; Day 43, subjects with ≧10 episodes of depression, p=0.18): 5.8
- MADRS change from baseline, as percentage of the baseline score, Δ (%) ([6]; Wk 1): −25.8%
- Average MADRS score ([6]; Wk 1, oral 2-4 g/day, all patients): 22.46
- MADRS change from baseline, as percentage of the baseline score, Δ (%) ([6]; Wk 2): −37.9%
- Average MADRS score ([6]; Wk 2, oral 2-4 g/day, all patients): 18.81
- MADRS change from baseline, as percentage of the baseline score, Δ (%) ([6]; Wk 3): −52.5%
- Average MADRS score ([6]; Wk 3, oral 2-4 g/day, all patients): 15.90
- MADRS change from baseline, as percentage of the baseline score, Δ (%) ([6]; Wk 4): −54.0%
- Average MADRS score ([6]; Wk 4, oral 2-4 g/day, all patients): 13.93
- MADRS change from baseline, as percentage of the baseline score, Δ (%) ([6]; Wk 5): −50.6%
- Average MADRS score ([6]; Wk 5, oral 2-4 g/day, all patients): 14.97
- MADRS change from baseline, as percentage of the baseline score, Δ (%) ([6]; Wk 6): −58.1%
- Average MADRS score ([6]; Wk 6 (end of treatment), oral 2-4 g/day, all patients): 12.69
- Average MADRS score [6, 10]: 15.91
- MADRS change from baseline, as percentage of the baseline score, Δ (%) [6, 10]: −47.5%
- Effect size from MERM change in mean MADRS score compared to placebo ([6]; baseline adjusted as a covariate, all patients): 0.43
- Rebound in the MADRS assessment after end of dosing ([6]; final assessment 4 weeks after study drug administration was completed): no rebound
- Difference of the mean MADRS scores in comparison to placebo (primary efficacy outcome) ([6]; mixed effects repeat measures, day 1 to day 43, total scores p=0.011, percent change from baseline p=0.014): statistically significant
- Improvement in MADRS score (Uridine vs Placebo) ([6]; patients with <5 manic episodes, Day 1): −0.64
- Improvement in MADRS score (Uridine vs Placebo) ([6]; patients with <5 manic episodes, Day 8): −3.57
- Improvement in MADRS score (Uridine vs Placebo) ([6]; patients with <5 manic episodes, Day 15): −1.39
- Improvement in MADRS score (Uridine vs Placebo) ([6]; patients with <5 manic episodes, Day 22): −1.20
- Improvement in MADRS score (Uridine vs Placebo) ([6]; patients with <5 manic episodes, Day 29): −1.76
- Improvement in MADRS score (Uridine vs Placebo) ([6]; patients with <5 manic episodes, Day 36): −4.62
- Improvement in MADRS score (Uridine vs Placebo) ([6]; patients with <5 manic episodes, Day 43): −6.56
- Response (MADRS vs placebo) ([6]; patients with a history of fewer than 2 episodes of mania): No positive response
- Improvement in MADRS score (Uridine vs Placebo) ([6]; patients with ≧5 manic episodes, Day 1): 0.37
- Improvement in MADRS score (Uridine vs Placebo) ([6]; patients with ≧5 manic episodes, Day 8): 1.63
- Improvement in MADRS score (Uridine vs Placebo) ([6]; patients with ≧5 manic episodes, Day 15): 4.41
- Improvement in MADRS score (Uridine vs Placebo) ([6]; patients with ≧5 manic episodes, Day 22): 6.33
- Improvement in MADRS score (Uridine vs Placebo) ([6]; patients with ≧5 manic episodes, Day 29): 7.07
- Improvement in MADRS score (Uridine vs Placebo) ([6]; patients with ≧5 manic episodes, Day 36): 3.20
- Improvement in MADRS score (Uridine vs Placebo) ([6]; patients with ≧5 manic episodes, Day 43 (week 6)): 5.88
- Treatment response, MADRS change from baseline ([6]; study end (week 6), subset with 15 or more episodes of depression): 58%
- MADRS improvement from baseline ([6]; study end, subset with <15 historic episodes of depression): 58%
- Difference in mean MADRS scores between treatment and placebo groups ([6]; subset with <15 historic episodes of depression (49 subjects)): no appreciable difference
- Average true difference in mean MADRS (corrected for baseline) vs placebo ([6]; week 3 to week 6, all patients): 3.2 points
- True difference in mean MADRS vs placebo (Δ) ([6]; week 6 (Day 43), subjects with ≧2 episodes of mania or hypomania, p=0.11): 5.7
- True difference in mean MADRS between groups (uridine vs placebo) ([6]; subjects with 15 or more episodes of mania and/or hypomania): 9.46
- True difference in mean MADRS between groups (uridine vs placebo) ([6]; subjects with history of 15 or more episodes of depression): 6.35
- True difference in mean MADRS between groups (uridine vs placebo) ([6]; total score (all subjects)): 3.04
- Mean change of MADRS from baseline ([6]; week 6 end of study, all patients): 17.6 points
- Mean change of MADRS from baseline (treatment response), percent ([6]; week 6 end of study): 58%
- Mean change of MADRS from baseline (treatment response), percent ([6]; week 6 end of study, listed as RG2417): 58.1%
- Average improvement on MADRS over placebo ([6]; all patients in the study, p=0.01): 3.0 points
- Average improvement on MADRS over placebo ([6]; patients with more than 5 episodes of depression (n=50), p<0.001): 5.5 points
- Effect of higher dosages in some patients ([7]; dosages higher than 1000 mg/kg/day): mild diarrhea
- Toxic effects of pure uridine, long-term experience ([7]; dosages of up to 1000 mg/kg/day): no known toxic effects
- Plasma uridine levels ([7]; oral, doses greater than 240 mg/kg): 60 to 80 µM
- Side effects noted with high dose oral uridine ([7]; oral, typically at doses greater than 240 mg/kg): diarrhea and abdominal cramps
- Change in YMRS from baseline in comparison to placebo, MERM ([8]; while on treatment, p=0.025): significant decrease
- Change in CGI vs placebo, MERM analysis of the treatment period ([9]; CGI-BP-C overall, p=0.044): significant difference
- Average CGI-C-BP (Depression) ([9]; Wk 1): 3.05
- Average CGI-C-BP (Overall) ([9]; Wk 1): 3.19
- Average CGI-C-BP (Depression) ([9]; Wk 2): 2.72
- Average CGI-C-BP (Overall) ([9]; Wk 2): 2.92
- Average CGI-C-BP (Depression) ([9]; Wk 3): 2.31
- Average CGI-C-BP (Overall) ([9]; Wk 3): 2.45
- Average CGI-C-BP (Depression) ([9]; Wk 4): 2.10
- Average CGI-C-BP (Overall) ([9]; Wk 4): 2.33
- Average CGI-C-BP (Depression) ([9]; Wk 5): 2.14
- Average CGI-C-BP (Overall) ([9]; Wk 5): 2.31
- Average CGI-C-BP (Depression) ([9]; Wk 6): 2.03
- Average CGI-C-BP (Overall) ([9]; Wk 6): 2.21

From patent US20110160158A1, “METHODS OF TREATMENT OF BIPOLAR DISORDER” (REPLIGEN CORPORATION, priority 2008, published 2011)
